The target of the assay is T1, Solute carrier family 22 member 12 (Homo sapiens, UniProt Q96S37).
T1 sequence (Q96S37 whole entry): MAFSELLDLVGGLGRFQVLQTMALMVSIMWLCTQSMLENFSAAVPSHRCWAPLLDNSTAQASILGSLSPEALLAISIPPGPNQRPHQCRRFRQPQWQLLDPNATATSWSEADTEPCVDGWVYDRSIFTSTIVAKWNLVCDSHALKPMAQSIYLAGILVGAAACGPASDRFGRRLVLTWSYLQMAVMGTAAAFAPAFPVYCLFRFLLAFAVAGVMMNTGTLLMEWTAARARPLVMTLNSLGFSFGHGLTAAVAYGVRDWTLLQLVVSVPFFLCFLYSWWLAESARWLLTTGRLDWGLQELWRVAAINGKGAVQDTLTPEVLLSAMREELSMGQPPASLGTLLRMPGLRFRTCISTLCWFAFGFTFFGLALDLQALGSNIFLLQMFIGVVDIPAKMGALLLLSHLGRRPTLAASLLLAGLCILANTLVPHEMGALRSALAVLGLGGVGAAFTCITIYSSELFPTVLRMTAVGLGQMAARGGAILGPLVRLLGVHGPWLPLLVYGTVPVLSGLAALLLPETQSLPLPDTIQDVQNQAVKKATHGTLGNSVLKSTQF
In words: Inhibition Assay: It was introduced human URAT1 full-length cDNA into an expression vector pcDNA5 / FRT / V5-His TOPO (registered trademark) (Invitrogen). The resulting expression plasmids, the liposome method using Lipofectamine LTX (Invitrogen), Chinese hamster ovary cells (hereinafter, referred to as CHO cells) was introduced into, by culturing in a selective medium containing hygromycin and human URAT1 stable The expression cell line we were prepared.Human URAT1 expression CHO cells, 10% fetal calf serum, D-MEM / F-12 containing the hygromycin (1: 1) using a mixed medium, 37 C, were cultured in the presence of 5% CO2. Cells were seeded in 96-well plates (Corning Incorporated) in 0.8x10E+5 cells / well, were subjected to the following uric acid transport inhibition test after 24 hours.After removal of the medium by aspiration, sodium gluconate of cells 125mM, potassium gluconate of 4.8mM, potassium dihydrogen phosphate of 1.2mM, magnesium sulfate of 1.2mM, calcium gluconate of 1.3mM, 5. washed once. The class given is cell-based.

Structures are written as SMILES.

By IC50 is commonly meant the concentration that inhibits the measured activity by half. Regarding `Cc1nn(Cc2c(Cl)cccc2Cl)c2cc(C(C)C(=O)O)ccc12` (configuration not stated), the IC50 worked out at 0.075 µM.

Regarding `Cc1nn(Cc2c(Cl)cccc2Cl)c2cc(C(C)(C)C(=O)O)ccc12`, the half-inhibitory concentration (IC50) came to 0.098 µM.

The values are drawn from ChEMBL document CHEMBL3639104, “Ring-fused compound” (2015).
